Assays:
[1] = tested on: neointimal formation in a mouse model of carotid artery transplantation; experiment: Murine carotid artery loop transplantation: neointimal formation (transplant-associated arteriosclerosis); type: in vivo; settings: mean±SD
Excerpt: The effect of compound 369 (VLA-4 antagonist) and compound 741 (VCAM-1 inhibitor) on the development of transplant-associated arteriosclerosis as measured by neointimal formation in a mouse model of carotid artery transplantation is investigated as mono-, combined, and tolerance induction therapy. Grafts are harvested at 30 days post-transplantation.
A murine model of accelerated transplant arteriosclerosis is used. Carotid arteries are allografted from B10.A (2R) to B10.BR mice, a commercially available strain combination that consistently results in neointimal formation 30 days after transplantation. The procedure is performed on anesthetized mice under a surgical dissecting microscope. A midline incision is made on the ventral side of neck from the suprasternal notch to the chin. The left carotid artery is gently dissected from the bifurcation in the distal end toward the proximal end as far as is technically possible. The artery is then occluded with two microvascular clamps, one at each end, and two longitudinal arteriotomies (0.5 to 0.6 mm) are made with a fine needle and scissors. In the donor mouse both the left and right carotid arteries are fully dissected from the arch to the bifurcation. The graft is then transplanted paratopically into the recipient in an end-to-side anastamosis with 11/0 continuous suture, and the skin incision is closed with a 5/0 interrupted suture. […] Vascular grafts are harvested 30 days after transplantation, a point at which a fully developed, nearly occlusive neointima is formed.
Compound 369: In the monotherapy experiments, compound 369 is administered three times per day subcutaneously (s.c.) for a total daily dose of 90 mg/kg/day.
Compound 741: Compound 741 is administered continuously via alzet pump in a dose of 5.0, 1.0, and 0.5 mg/kg/day, respectively.
Anti VLA-4 Mab: The anti VLA-4 antibody is administered 100 μg/mouse/d i.p.
A fixed dose of compound 369 is given as a total daily dose of 60 mg/kg/day s.c. and compound 741 is administered continuously via alzet pump at a dose of 5.0, 1.0, and 0.5 mg/kg/day, respectively.
Compound 369 (60 mg/kg/d) and compound 741 (5 mg/kg/d) are given simultaneously for the first 10 days only.
In all cases, allografts are harvested at day 30. […]
Morphometrical analysis is performed on VerHoeff stained paraffin sections using a computer-assisted image analysis system. The areas of the neointima are measured by computerized planimetry of sections obtained approximately 150, 300, and 450 μm from the center of the graft.
Data from morphometric analyses are reported as the neointima area on cross-section determined by subtracting the new lumen area measurement from the internal elastic lamina (IEL) area measurement for each animal. […]

[2] = Dissolution of compound 741 in dosing vehicle; type: physicochemical; settings: 1:1 mixture of CsA placebo solution (Cremphor, ethanol) and propylene glycol
Procedure: Compound 741 is dissolved in a 1:1 mixture of CsA placebo solution (each mL contains 650 mg of Cremphor and 32.9% ethanol) and propylene glycol. Compound 741 is very soluble in this mixture and the final solution is clear.

Structure (SMILES)	neointima area on cross-section ([1]; monotherapy compound 369 90 mg/kg/d s.c. (three times per day), allograft harvested day 30)	solubility [2]	neointima area on cross-section ([1]; monotherapy Cmpd.741 0.5 mg/kg/d continuously via alzet pump, allograft harvested day 30)	neointima area on cross-section ([1]; monotherapy Cmpd.741 1 mg/kg/d continuously via alzet pump, allograft harvested day 30)	neointima area on cross-section ([1]; monotherapy Cmpd.741 5 mg/kg/d continuously via alzet pump, B10.A (2R) to B10.BR allograft harvested day 30)
COCCCN(CC(=O)N[C@@H](CC(=O)O)c1ccc(OC)c(OC)c1)C(=O)Cc1ccc(NC(=O)Nc2ccccc2C)cc1 [Cmpd.369, (S)-β-[3-Methoxypropyl)[[4-[(2-methylphenylaminocarbonylamino)-phenyl]acetyl]amino]acetylamino-3,4-dimethoxy-benzenepropanoic Acid]	19,874 μm^2	–	–	–	–
CCCCC(C)CC1NC(=O)C(Cc2cn(OC)c3ccccc23)N(C)C(=O)C(CC(C)C)NC(=O)C(CC(C)C)N(C)C(=O)C(CC(C)CCCC)NC(=O)C(CCC(=O)OCCC)OC(=O)C(C)N(C)C1=O (centres unmarked) [Cmpd.741]	–	very soluble	30,926 μm^2	32,249 μm^2	18,804 μm^2

— patent US6365619B1, “Treatment of arteriosclerosis” (Novartis AG, priority 1999, dated 2002)
